Laboratory results reported in US20240270762A1, “PENICILLIN-BINDING PROTEIN INHIBITORS” (priority 2021, published 2024).
≈ marks a conversion by molar mass, not a printed value.

Key:
N. gonorrhoeae WHO K = assay: Liquid broth MIC in Fastidious broth; conditions: Neisseria gonorrhoeae, read-out: Minimum Inhibitory Concentration (MIC), N. gonorrhoeae WHO K
E. coli 901C = assay: microbe, parasite or virus in culture; type: cell-based; conditions: Escherichia coli, read-out: MIC E. coli 901C
[1] = biological target: T1, PBP2 from Neisseria gonorrhoeae (FA19) (Neisseria gonorrhoeae, UniProt P08149); assay: Bocillin-FL fluorescence polarization competition binding, N. gonorrhoeae PBP2; conditions: fluorescence polarization competition binding assay using Bocillin-FL, read-out: N. gonorrhoeae PBP2 Potency
T1 construct: made in house
T1 sequence (P08149 whole entry): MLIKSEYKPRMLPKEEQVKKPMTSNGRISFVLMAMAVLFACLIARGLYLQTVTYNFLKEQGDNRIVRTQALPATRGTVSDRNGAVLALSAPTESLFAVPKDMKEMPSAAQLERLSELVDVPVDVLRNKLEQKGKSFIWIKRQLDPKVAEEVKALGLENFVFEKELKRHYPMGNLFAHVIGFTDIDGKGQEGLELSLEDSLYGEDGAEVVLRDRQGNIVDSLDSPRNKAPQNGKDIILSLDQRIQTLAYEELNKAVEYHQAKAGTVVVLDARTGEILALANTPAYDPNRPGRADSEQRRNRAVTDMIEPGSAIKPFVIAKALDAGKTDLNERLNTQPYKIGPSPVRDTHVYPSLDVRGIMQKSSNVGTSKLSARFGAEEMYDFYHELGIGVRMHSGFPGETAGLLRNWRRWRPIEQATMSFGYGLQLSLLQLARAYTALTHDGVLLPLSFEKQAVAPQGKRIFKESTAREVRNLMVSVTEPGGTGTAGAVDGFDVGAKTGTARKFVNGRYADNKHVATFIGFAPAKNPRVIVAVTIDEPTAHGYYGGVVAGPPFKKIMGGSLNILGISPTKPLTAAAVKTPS
Source text: To determine the ability of boronic acid-based test PBP inhibitors to bind Penicillin Binding Proteins (PBPs), Bocillin-FL (fluorescently-labeled penicillin V; ThermoFisher Scientific) was used in a fluorescence polarization (FP) competition binding assay to assess inhibitor binding to PBP3 from Escherichia coli (K-12), PBP3 from Pseudomonas aeruginosa (PAO1), PBP1a and PBP3 from Acinetobacter baumannii (ATCC 19606), and PBP2 from Neisseria gonorrhoeae (FA19). PBPs were cloned and purified as described previously (E. coli PBP3, King, D. T, et al., ACS Infectious Diseases 2015, 1, 175-184; P. aeruginosa PBP3, Han et. al., PNAS 2010, 107 (51), 22002-22007; A. baumannii PBPs, Penwell et. al., Antimicrob. Agents Chemother. 2015, 59 (3), 1680-1689; N. gonorrhoeae PBP2, Singh et. al., J. Biol. Chem. 2019, 294 (38), 14020-14032). To establish assay conditions for competition binding, enzyme titration/saturation binding experiments were initially performed. Bocillin-FL was prepared at 0.2 μM in a buffer comprised of 50 mM Hepes (pH 8.0), 300 mM NaCl and 10% (v/v) glycerol for reactions with E. coli, P. aeruginosa and N. gonorrhoeae PBPs, and 25 mM Tris (pH 8.0), 200 mM NaCl, 10% (v/v) glycerol and 0.005% (v/v) Tween 20 for reactions with A. baumannii PBPs. Saturation binding was performed by mixing 40 μl of PBP solutions ranging in concentrations from 0-24 μM with 40 μl of the 0.2 μM Bocillin-FL solution, in individual wells of a black 384-well microplate. FP was measured immediately upon mixing (Excitation, 490 nm; Emission, 520 nm; g-factor, 0.96), using a Cytation3 (BioTek) microplate reader and measured continuously for up to 120 minutes. […] The competition binding assay (80 μl final volume) was validated using beta-lactams and PBPs at final concentrations of: 1.5 μM for E. coli PBP3; 0.75 μM for P. aeruginosa PBP3; 1 μM for A. baumannii PBP1a; 0.2 μM for A. baumannii PBP3; and 0.25 μM for N. gonorrhoeae PBP2. Bocillin-FL was at 0.1 μM (0.05 μM with A. baumannii PBP1a) and beta-lactam concentrations ranged from 0-1,000 μM. E. coli PBP3 was incubated with increasing concentrations of ampicillin in a black 384-well microplate (Corning) for 30 minutes. P. aeruginosa PBP3 was incubated for 15 minutes with aztreonam, whereas A. baumannii PBP1a and PBP3 were incubated for 15 minutes with meropenem, and then Bocillin-FL was added followed immediately by the FP measurement for up to 60 minutes. […] The beta-lactam potency was reported as the concentration of beta-lactam required to reduce the amount of PBP bound-Bocillin-FL by 50% (EC50). […] Binding assays for boronic acid PBP inhibitors were performed in an identical fashion for the respective PBPs.

Row | SMILES | MIC (N. gonorrhoeae WHO K) [µg/mL] | MIC (E. coli 901C) [µg/mL] | EC50 [1] [µM]
1 | O=C(O)c1cccc2c1OB(O)[C@@H](NC(=O)[C@@H](NC(=O)N1CCCCC1=O)c1ccc(P(=O)(O)O)cc1)C2 [Example 36, (R)-2-hydroxy-3-((S)-2-(2-oxopiperidine-1-carboxamido)-2-(4-phosphonophenyl)acetamido)-3,4-dihydro-2H-benzo[39e][1,2]oxaborinine-8-carboxylic acid] | 16 to 32 (≈ 29.3 to 58.7 µM) | 8 to 16 (≈ 14.7 to 29.3 µM) | 10 to 50
2 | O=C(O)c1cccc2c1OB(O)[C@@H](NC(=O)[C@H](NC(=O)N1CCCCC1=O)c1ccc(P(=O)(O)O)cc1)C2 [Example 37, (R)-2-hydroxy-3-((R)-2-(2-oxopiperidine-1-carboxamido)-2-(4-phosphonophenyl)acetamido)-3,4-dihydro-2H-benzo[e][1,2]oxaborinine-8-carboxylic acid] | 4 to 8 (≈ 7.34 to 14.7 µM) | < 1 | < 10
3 | CN1CCCN(C(=O)NC(C(=O)N[C@H]2Cc3cccc(C(=O)O)c3OB2O)c2ccc(P(=O)(O)O)cc2)C1=O (stereo partly drawn) [Example 38, (3R)-2-hydroxy-3-(2-(3-methyl-2-oxohexahydropyrimidine-1-carboxamido)-2-(4-phosphonophenyl)acetamido)-3,4-dihydro-2H-benzo[e][1,2]oxaborinine-8-carboxylic acid] | 4 to 8 (≈ 7.14 to 14.3 µM) | 2 to 4 (≈ 3.57 to 7.14 µM) | < 10
4 | O=C(O)c1cccc2c1OB(O)[C@@H](NC(=O)[C@@H](NC(=O)N1CCNC1=O)c1ccc(P(=O)(O)O)cc1)C2 [Example 39, (R)-2-hydroxy-3-((S)-2-(2-oxoimidazolidine-1-carboxamido)-2-(4-phosphonophenyl)acetamido)-3,4-dihydro-2H-benzo[e][1,2]oxaborinine-8-carboxylic acid] | 16 to 32 (≈ 30.1 to 60.1 µM) | 2 to 4 (≈ 3.76 to 7.52 µM) | 10 to 50
5 | O=C(O)c1cccc2c1OB(O)[C@@H](NC(=O)[C@H](NC(=O)N1CCNC1=O)c1ccc(P(=O)(O)O)cc1)C2 [Example 40, (R)-2-hydroxy-3-((R)-2-(2-oxoimidazolidine-1-carboxamido)-2-(4-phosphonophenyl)acetamido)-3,4-dihydro-2H-benzo[e][1,2]oxaborinine-8-carboxylic acid] | 1 to 2 (≈ 1.88 to 3.76 µM) | < 1 | < 10
6 | CN1CCN(C(=O)NC(C(=O)N[C@H]2Cc3cccc(C(=O)O)c3OB2O)c2ccc(P(=O)(O)O)cc2)C1=O (stereo partly drawn) [Example 41, (3R)-2-hydroxy-3-(2-(3-methyl-2-oxoimidazolidine-1-carboxamido)-2-(4-phosphonophenyl)acetamido)-3,4-dihydro-2H-benzo[e][1,2]oxaborinine-8-carboxylic acid] | < 1 | < 1 | < 10
7 | CCN1CCN(C(=O)NC(C(=O)N[C@H]2Cc3cccc(C(=O)O)c3OB2O)c2ccc(P(=O)(O)O)cc2)C1=O (stereo partly drawn) [Example 42, (3R)-3-(2-(3-ethyl-2-oxoimidazolidine-1-carboxamido)-2-(4-phosphonophenyl)acetamido)-2-hydroxy-3,4-dihydro-2H-benzo[e][1,2]oxaborinine-8-carboxylic acid] | 1 to 2 (≈ 1.78 to 3.57 µM) | < 1 | < 10
8 | CS(=O)(=O)N1CCC[C@H]1C(=O)N[C@H](C(=O)N[C@H]1Cc2cccc(C(=O)O)c2OB1O)c1ccc(P(=O)(O)O)cc1 [Example 43, (R)-2-hydroxy-3-((S)-2-((S)-1-(methylsulfonyl)pyrrolidine-2-carboxamido)-2-(4-phosphonophenyl)acetamido)-3,4-dihydro-2H-benzo[e][1,2]oxaborinine-8-carboxylic acid] | 16 to 32 (≈ 26.9 to 53.8 µM) | 8 to 16 (≈ 13.4 to 26.9 µM) | 50 to 250
9 | CS(=O)(=O)N1CCC[C@H]1C(=O)N[C@@H](C(=O)N[C@H]1Cc2cccc(C(=O)O)c2OB1O)c1ccc(P(=O)(O)O)cc1 [Example 44, (R)-2-hydroxy-3-((R)-2-((S)-1-(methylsulfonyl)pyrrolidine-2-carboxamido)-2-(4-phosphonophenyl)acetamido)-3,4-dihydro-2H-benzo[e][1,2]oxaborinine-8-carboxylic acid] | 4 to 8 (≈ 6.72 to 13.4 µM) | 2 to 4 (≈ 3.36 to 6.72 µM) | < 10
10 | CS(=O)(=O)N1CCN(C(=O)NC(C(=O)N[C@H]2Cc3cccc(C(=O)O)c3OB2O)c2ccc(P(=O)(O)O)c(F)c2O)C1=O (stereo partly drawn) [Example 48, (3R)-3-(2-(3-fluoro-2-hydroxy-4-phosphonophenyl)-2-(3-(methylsulfonyl)-2-oxoimidazolidine-1-carboxamido)acetamido)-2-hydroxy-3,4-dihydro-2H-benzo[e][1,2]oxaborinine-8-carboxylic acid] | 4 to 8 (≈ 6.21 to 12.4 µM) | < 1 | < 10
11 | O=C(O)c1cccc2c1OB(O)[C@@H](NC(=O)C(NC(=O)N1CCCC1=O)c1ccc(P(=O)(O)O)cc1)C2 (stereo partly drawn) [Example 57, (3R)-2-hydroxy-3-(2-(2-oxopyrrolidine-1-carboxamido)-2-(4-phosphonophenyl)acetamido)-3,4-dihydro-2H-benzo[e][1,2]oxaborinine-8-carboxylic acid] | 4 to 8 (≈ 7.53 to 15.1 µM) | < 1 | < 10
12 | N#Cc1cccc(C(=O)N[C@@H](C(=O)N[C@H]2Cc3cccc(C(=O)O)c3OB2O)c2ccc(P(=O)(O)O)cc2)n1 [Example 180, (R)-3-((R)-2-(6-cyanopicolinamido)-2-(4-phosphonophenyl)acetamido)-2-hydroxy-3,4-dihydro-2H-benzo[e][1,2]oxaborinine-8-carboxylic acid] | 1 to 2 (≈ 1.82 to 3.63 µM) | < 1 | < 10
13 | O=C(O)c1cccc2c1OB(O)[C@@H](NC(=O)C(NC(=O)c1ncccc1Cl)c1ccc(P(=O)(O)O)cc1)C2 (stereo partly drawn) [Example 183, (3R)-3-(2-(3-chloropicolinamido)-2-(4-phosphonophenyl)acetamido)-2-hydroxy-3,4-dihydro-2H-benzo[e][1,2]oxaborinine-8-carboxylic acid] | 16 to 32 (≈ 28.6 to 57.2 µM) | 8 to 16 (≈ 14.3 to 28.6 µM) | < 10
14 | O=C(NC(C(=O)N[C@H]1Cc2cccc(C(=O)O)c2OB1O)c1ccc(P(=O)(O)O)cc1)c1ccc(Cl)cn1 (stereo partly drawn) [Example 184, (3R)-3-(2-(5-chloropicolinamido)-2-(4-phosphonophenyl)acetamido)-2-hydroxy-3,4-dihydro-2H-benzo[e][1,2]oxaborinine-8-carboxylic acid] | 1 to 2 (≈ 1.79 to 3.57 µM) | < 1 | < 10
15 | NC(=O)c1ccc(C(=O)NC(C(=O)N[C@H]2Cc3cccc(C(=O)O)c3OB2O)c2ccc(P(=O)(O)O)cc2)nc1 (stereo partly drawn) [Example 188, (3R)-3-(2-(5-carbamoylpicolinamido)-2-(4-phosphonophenyl)acetamido)-2-hydroxy-3,4-dihydro-2H-benzo[e][1,2]oxaborinine-8-carboxylic acid] | 1 to 2 (≈ 1.76 to 3.52 µM) | < 1 | < 10
16 | CCN1CCN(C(=O)NC(C(=O)N[C@H]2Cc3cccc(C(=O)O)c3OB2O)c2ccc(S(=O)(=O)O)cc2)C(=O)C1=O (stereo partly drawn) [Example 189, (3R)-3-(2-(4-ethyl-2,3-dioxopiperazine-1-carboxamido)-2-(4-sulfophenyl)acetamido)-2-hydroxy-3,4-dihydro-2H-benzo[e][1,2]oxaborinine-8-carboxylic acid] | 1 to 2 (≈ 1.7 to 3.4 µM) | < 1 | < 10
